Key:
Format in all cases: cell-based, human
PK1 = assay: cell colony formation assay (FIG. 1); conditions: PK1 (RNF43 wild-type); 1 μM LGK974; 10 day assay
Protocol: FIG. 1(a) is a photograph showing a HPAFII cell colony formation assay in the presence of LGK974 at two concentrations (300 nM and 1 μM). 1300 cells were seeded into media with indicated treatment and the media were replaced every 5 days until crystal violet staining at day 14. […] FIG. 1(b) is a photograph showing PK1 (having a functional RNF43 protein) and HPAFII (having a nonfunctional RNF43 protein) cell colony formation assays in the presence of 1 μM LGK974 alone or together with daily addition of 10% Wnt3a conditioned media (CM).

L3.3 = assay: foci formation assay; conditions: 1 μM LGK974
Protocol: (§1) To assay foci formation, 6,000˜12,000 cells of indicated cell lines were seeded in 6 well tissue culture plate in 2 ml growth media. After overnight culture for cell attachment, media was replaced with fresh growth media containing 1 μM LGK974 in the absence and presence of recombinant Wnt3a. For DOX-inducible β-catenin shRNA experiment, cells were treated 5 ng/ml doxycycline. When cell colonies reached desirable size, cells were fixed with 4% formalin in PBS and stained with crystal violet solution. After a few washes, plates were dried and imaged.
(§2) Identification of pancreatic cancer lines containing inactivation mutation of RNF43. Discovery of LGK974, a potent and selective inhibitor of Porcupine, offered us a unique chemical tool to systemically examine Wnt dependency in a large panel of cancer cell lines. We tested LGK974 in a large panel of pancreatic cancer cell lines using foci formation assay. Foci formation assay was utilized because it is more sensitive than routine growth assays such as CellTiter-Glo, and it is less affected by the different growth rates of various cell lines.

PL45 = assay: foci formation assay; conditions: 1 μM LGK974
Protocol: as §1, §2

PSN-1 = assay: foci formation assay; conditions: 1 μM LGK974
Protocol: as §1, §2

Hs766T = assay: foci formation assay; conditions: 1 μM LGK974
Protocol: as §1, §2

PK59 = assay: foci formation assay; conditions: 1 μM LGK974
Protocol: as §1, §2

KP4 = assay: foci formation assay; conditions: 1 μM LGK974
Protocol: as §1, §2

BXPC3 = assay: foci formation assay; conditions: 1 μM LGK974
Protocol: as §1, §2

Panc08.13 = assay: foci formation assay; conditions: 1 μM LGK974
Protocol: as §1, §2

HPAFII = assay: foci formation assay; conditions: 1 μM LGK974
Protocol: as §1, §2

KP1-N = assay: foci formation assay; conditions: 1 μM LGK974
Protocol: as §1, §2

KP2 = assay: foci formation assay; conditions: 1 μM LGK974
Protocol: as §1, §2

Capan-2 = assay: foci formation assay; conditions: 1 μM LGK974
Protocol: as §1, §2

Panc04.03 = assay: foci formation assay; conditions: 1 μM LGK974
Protocol: as §1, §2

Capan-1 = assay: foci formation assay; conditions: 1 μM LGK974
Protocol: as §1, §2

PK45H = assay: foci formation assay; conditions: 1 μM LGK974
Protocol: as §1, §2

PaTu-8988T = assay: foci formation assay; conditions: 1 μM LGK974
Protocol: as §1, §2

Panc10.05 = assay: foci formation assay; conditions: 1 μM LGK974
Protocol: as §1, §2

SW1990 = assay: foci formation assay; conditions: 1 μM LGK974
Protocol: as §1, §2

KP3 = assay: foci formation assay; conditions: 1 μM LGK974
Protocol: as §1, §2

MIA CaPa-2 = assay: foci formation assay; conditions: 1 μM LGK974
Protocol: as §1, §2

DanG = assay: foci formation assay; conditions: 1 μM LGK974
Protocol: as §1, §2

Panc05.04 = assay: foci formation assay; conditions: 1 μM LGK974
Protocol: as §1, §2

KCl-MOH1 = assay: foci formation assay; conditions: 1 μM LGK974
Protocol: as §1, §2

SUIT-2 = assay: foci formation assay; conditions: 1 μM LGK974
Protocol: as §1, §2

YAPC = assay: foci formation assay; conditions: 1 μM LGK974
Protocol: as §1, §2

SU86.86 = assay: foci formation assay; conditions: 1 μM LGK974
Protocol: as §1, §2

HuPT4 = assay: foci formation assay; conditions: 1 μM LGK974
Protocol: as §1, §2

TCC-PAN2 = assay: pathway inhibition by LGK974 (Table 4)
RNF43 mutant cell lines = assay: EdU proliferation assay; conditions: 1 μM LGK974, 3 days
Protocol: Further, LGK974 induced the expression of differentiation marker MUC2, MUC5A/C in RNF43 mutant cells. LGK974 blocked EDU incorporation in RNF43 mutant cell lines, so Wnt inhibition in these cells leads to cell cycle arrest. LGK974-induced growth inhibition and cellular differentiation of RNF43 mutant cells are also obvious using Ki67 staining (anti-Ki67 (SP6) from Vector Laboratories, Burlingame, Calif., USA 94010) and Alcian Blue staining.
For the EdU proliferation assay, cells were plated in growth medium in 96 well plate at a density of 6000-12,000 cells per well, and treated with DMSO or 1 μM LGK974. After 3 days, the cells were treated with fresh growth medium containing 20 μM EdU, which was included in the Click-iT EdU Alexa Fluor 488 HCS assay kit (Invitrogen), and the plate was incubated for 2 hr at 37° C. in a humidified atmosphere containing 5% CO2. Cells were fixed with final 4% paraformaldehyde for 30 min, washed with PBS, permeabilized, and stained with 0.75% TritonX-100 and 50 μg/ml Hoechst in PBS for 30 min. After wash, the cells were proceeded EdU detection according to the instruction of Click-iT EdU assay kit. Triplet wells were performed for each condition.

SMILES: Cc1cc(-c2ncc(CC(=O)Nc3ccc(-c4cnccn4)cn3)cc2C)ccn1 [LGK974, 2-[5-methyl-6-(2-methylpyridin-4-yl)pyridin-3-yl]-N-[5-(pyrazin-2-yl)pyridin-2-yl]acetamide]
- colony formation (PK1): no sensitivity
- Growth inhibition in foci formation assay (L3.3): No
- Growth inhibition in foci formation assay (PL45): not sensitive and No
- Growth inhibition in foci formation assay (PSN-1): No
- Growth inhibition in foci formation assay (Hs766T): No
- Growth inhibition in foci formation assay (PK59): No
- Growth inhibition in foci formation assay (KP4): No
- Growth inhibition in foci formation assay (BXPC3): No
- Growth inhibition in foci formation assay (Panc08.13): No
- Growth inhibition in foci formation assay (HPAFII): strong growth inhibitory activity and strongly inhibited and Yes
- Growth inhibition in foci formation assay (KP1-N): No
- Growth inhibition in foci formation assay (KP2): No
- Growth inhibition in foci formation assay (Capan-2): strong growth inhibitory activity and strongly inhibited and Yes
- Growth inhibition in foci formation assay (Panc04.03): No
- Growth inhibition in foci formation assay (Capan-1): No
- Growth inhibition in foci formation assay (PK45H): No
- Growth inhibition in foci formation assay (PaTu-8988T): not sensitive and No
- Growth inhibition in foci formation assay (Panc10.05): not sensitive and No
- Growth inhibition in foci formation assay (SW1990): No
- Growth inhibition in foci formation assay (KP3): No
- Growth inhibition in foci formation assay (MIA CaPa-2): No
- Growth inhibition in foci formation assay (DanG): No
- Growth inhibition in foci formation assay (Panc05.04): No
- Growth inhibition in foci formation assay (KCl-MOH1): No
- Growth inhibition in foci formation assay (SUIT-2): No
- Growth inhibition in foci formation assay (YAPC): without significant effect and No
- Growth inhibition in foci formation assay (SU86.86): No
- Growth inhibition in foci formation assay (HuPT4): No
- Pathway inhibition (TCC-PAN2): Yes
- EDU incorporation (RNF43 mutant cell lines): blocked

From patent publication US20170306409A1, “CANCER PATIENT SELECTION FOR ADMINISTRATION OF WNT SIGNALING INHIBITORS USING RNF43 MUTATION STATUS” (NOVARTIS AG, priority 2012, published 2017)
